# Test results: ChEMBL document CHEMBL3414535, “Identification and optimization of Escherichia coli GlmU inhibitors: an in silico approach with validation thereof” (Eur J Med Chem, 2015)
# Target: Bifunctional protein GlmU (Escherichia coli (strain K12)) (UniProt P0ACC7)
# Assay: Inhibition of Escherichia coli GlmU acetyltransferase activity assessed as coenzyme A production using acetyl CoA substrate at 100 uM
# Sequence of Bifunctional protein GlmU (Escherichia coli (strain K12)) (P0ACC7 whole entry, looked up): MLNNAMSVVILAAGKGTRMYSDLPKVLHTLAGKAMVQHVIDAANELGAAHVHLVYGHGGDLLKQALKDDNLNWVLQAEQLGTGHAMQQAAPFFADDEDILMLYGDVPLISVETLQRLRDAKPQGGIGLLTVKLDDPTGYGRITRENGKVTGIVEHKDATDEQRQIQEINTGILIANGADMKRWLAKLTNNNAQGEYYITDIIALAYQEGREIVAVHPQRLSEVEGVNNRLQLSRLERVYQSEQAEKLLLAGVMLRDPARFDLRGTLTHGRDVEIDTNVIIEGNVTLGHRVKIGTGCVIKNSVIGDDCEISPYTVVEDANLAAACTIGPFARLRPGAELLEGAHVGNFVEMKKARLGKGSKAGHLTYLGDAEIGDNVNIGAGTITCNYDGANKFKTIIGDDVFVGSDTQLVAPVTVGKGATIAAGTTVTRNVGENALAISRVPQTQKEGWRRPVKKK
row,Compound,inhibition [%]
1,COc1ccc(-c2cnc(C)o2)cc1S(=O)(=O)Nc1cccc(Cl)c1,40.6
2,CC(=O)Cc1nsc(NC(=O)C2(C)Cc3ccccc3C(=O)O2)n1 (configuration not stated),24.6
3,CN1C(C(=O)NCC2CCCO2)=CC(c2ccco2)=NS1(=O)=O (configuration not stated),28.6
4,O=S(=O)(NCc1cccnc1)c1ccc(-c2ccno2)o1,44.7
5,Cc1cc(S(=O)(=O)C(CNC(=O)c2ccco2)c2ccco2)ccc1F (configuration not stated),12.6
6,CCOC(=O)c1c(S(=O)(=O)NCC(=O)Nc2cccnc2)c(C)n(C)c1C,16.2
7,O=C(NCCN1CCCC1)C1=C2CCCN2c2ccc(F)cc2S1(=O)=O,25.1
8,O=S(=O)(c1cc(-c2nnc(C3CCCC3)o2)co1)N1CCc2ccccc2C1,32.3
9,O=C(CSC1=NS(=O)(=O)c2ccccc2N1)OCc1ccccc1,18.4
10,O=C(CN1c2ccc(F)cc2-c2ccccc2S1(=O)=O)Nc1cccnc1,19.8
11,COc1ccc(-c2cnc(C)o2)cc1S(=O)(=O)Nc1cccc(F)c1,36
12,CSc1cccc(NS(=O)(=O)c2cc3c(cc2Cl)NC(=O)CO3)c1,68.7
13,O=S(=O)(Nc1ccc(F)c(F)c1)c1c[nH]c2ncccc12,25.9
14,Cc1ccc(C)c(NS(=O)(=O)c2ccc(-c3nnc(C(C)C)o3)o2)c1,34.4
15,CCOC(=O)c1c(C)[nH]c(C)c1S(=O)(=O)NCC(=O)Nc1cccnc1,16.5
16,CCOC(=O)COc1ccccc1/C=C1\N=C(SCC)SC1=O,45.3
17,COc1ccc(S(=O)(=O)C(CNC(=O)c2ccccc2)c2ccco2)cc1 (configuration not stated),17.1
18,CCCN1C=NS(=O)(=O)c2cc(C(=O)Nc3ccccc3F)ccc21,20.1
19,CCn1c(C)c(-c2nc(C3CC3)no2)c(S(=O)(=O)NCC2CCCO2)c1C (configuration not stated),21.1

row,Compound,inhibition [%]
1,CC(Sc1nnc(O)nc1O)C(=O)OCc1ccccc1 (configuration not stated),28.6
2,c1cncc(CNc2nnc(-c3nc(C4CC4)no3)c3ccccc23)c1,18.5
3,COc1ccccc1NS(=O)(=O)c1cc(-c2cnc(C3CC3)o2)ccc1C,21.1
4,COCCNC(=O)c1ccccc1NS(=O)(=O)c1ccc2c(c1)OCCO2,12
5,COc1ccc(Cl)cc1N(CC(=O)O)S(=O)(=O)c1ccccc1,45.1
6,COC(=O)c1cc(S(=O)(=O)Nc2cccc(Cl)c2C)c[nH]1,3.74
7,CCOC(=O)c1cc(S(=O)(=O)N(C)CC(=O)Nc2ccc(F)cc2)cn1C,11.9
8,CCc1ccccc1NS(=O)(=O)c1ccc(-c2ccc(=O)[nH]n2)o1,9.82
9,CCOC(=O)c1cc(S(=O)(=O)N2CCCC2C(=O)NC(C)(C)CC)cn1C (configuration not stated),30.8
10,O=S(=O)(Nc1cc(F)cc(F)c1)c1c[nH]c2ncccc12,14.8
11,COC(=O)c1cc(S(=O)(=O)Nc2cccc(SC)c2)c[nH]1,5.65
12,CC(C)C(=O)N1CCCc2cc(NS(=O)(=O)c3cccc(F)c3)ccc21,82.9
13,COc1cc(NS(=O)(=O)c2c[nH]c3ncccc23)cc(OC)c1,19.3
14,O=C(CN1c2cccc3cccc(c23)S1(=O)=O)Nc1ccc(F)c(F)c1,28.4
15,O=C(Nc1nonc1-c1ccccc1)C1COc2ccccc2O1 (configuration not stated),17.5
16,CCn1cc(C(=O)NCc2ccco2)c(S(=O)(=O)N2CCSCC2)n1,22.1
17,CCOc1ccc(OCC)c(Nc2c(-c3ccccc3)c(=O)c2=O)c1,16.8
18,O=S(=O)(c1ccccc1)c1nc(-c2ccco2)oc1NCCCn1ccnc1,20.7
19,COc1ccc(C2SCC(=O)Nc3[nH]nc(C)c32)c(OC)c1OC (configuration not stated),20.5

row,Compound,inhibition [%]
1,COc1ccc(OC)c(N(CC(=O)O)S(=O)(=O)c2ccccc2)c1,42
2,Cc1nn(-c2ccccc2)c(O)c1/C=N/NC(=O)C(O)c1ccccc1 (configuration not stated),28.1
3,CCOC(=O)c1c(S(=O)(=O)NCC(=O)Nc2ccccc2)c(C)n(C)c1C,15.2
4,O=S(=O)(Nc1cc(F)ccc1F)c1c[nH]c2ncccc12,16.8
5,O=S(=O)(NCc1ccccn1)c1ccc(-c2ccno2)o1,30.6
6,CCOC(=O)CC1(c2ccccc2)SC(NC(C)=O)=NN1C(C)=O (configuration not stated),9.41
7,CCOc1ccc(OCC)c(NS(=O)(=O)c2ccc3c(c2)N(C)CCO3)c1,29.2
8,COC(=O)c1cc(S(=O)(=O)Nc2ccc(C)cc2Cl)c[nH]1,5.22
9,CCOC(=O)c1cc(S(=O)(=O)N(C)CC(=O)Nc2ccc(C)cn2)cn1C,14.3
10,O=C(Nc1nc(S(=O)(=O)Cc2ccccc2)ns1)c1ccccc1,15.8
11,Cc1nc2c(c(SCC(=O)c3ccc(O)cc3O)n1)CCC2,25.9
12,COc1cc(Nc2c(-c3ccccc3)c(=O)c2=O)cc(OC)c1,40
13,O=S(=O)(c1ccccc1)c1nc(-c2ccsc2)oc1NCC1CCCO1 (configuration not stated),13.3
14,Cc1ccc(S(=O)(=O)n2ccn(C(=O)C(C)Oc3ccccc3)c2=O)cc1 (configuration not stated),11.1
15,CCOC(=O)c1cc(S(=O)(=O)N2CCCC2C(=O)NC(C)C)cn1C (configuration not stated),10.3
16,COC(=O)C1CN(C(=O)C(C)Oc2ccccc2F)c2ccccc2O1 (configuration not stated),25.5
17,CCOC(=O)c1cc(S(=O)(=O)N2CCCC2C(=O)N2CCCC2)cn1C (configuration not stated),7.99
18,Cc1cc(SCC(=O)c2ccc(O)cc2O)ncn1,20.9

# Target: Bifunctional protein GlmU (Escherichia coli (strain K12), UniProt P0ACC7)
# Assay: Inhibition of Escherichia coli GlmU acetyltransferase activity assessed as coenzyme A production using acetyl CoA substrate
# Sequence of Bifunctional protein GlmU (P0ACC7 whole entry): as the sequence (P0ACC7 whole entry, looked up) above
row,Compound,IC50 [nM]
1,COc1cc(OC)c(S(=O)(=O)N2c3ccccc3CC[C@H]2C)cc1NC(=O)COC(C)=O,2000
2,COc1cc(OC)c(S(=O)(=O)N(c2ccc(C)cc2)c2ccc(C)cc2)cc1NC(=O)CCC(=O)O,40
3,COc1cc(OC)c(S(=O)(=O)N2c3ccccc3CC[C@H]2C)cc1NC(=O)CSc1ccncc1,1000
4,COc1cc(OC)c(S(=O)(=O)NCc2ccccc2N2CCC(CO)CC2)cc1NC(C)=O,40000
5,COc1cc(OC)c(S(=O)(=O)NCc2ccccc2CC(=O)O)cc1NC(C)=O,15000
6,COc1cc(OC)c(S(=O)(=O)N(c2ccccc2)C(C)C)cc1NC(C)=O,2000
7,CCN(c1ccccc1C)S(=O)(=O)c1cc(NC(C)=O)c(OC)cc1OC,15000
8,COc1cc(OC)c(S(=O)(=O)Nc2ccccc2F)cc1NC(C)=O,5000
9,COc1cc(O)c(S(=O)(=O)N2c3ccccc3Oc3ccccc32)cc1NC(=O)[C@H]1[C@H](C)[C@@H]1C(=O)O,60
10,COc1cc(OC)c(S(=O)(=O)N2CCCC[C@@H]2C)cc1NC(C)=O,130000
11,COc1cc(OC)c(S(=O)(=O)N(C)C)cc1NC(C)=O,200000
12,COc1cc(OC)c(S(=O)(=O)Nc2ccc(C)cc2)cc1NC(C)=O,21000
13,COc1cc(OC)c(S(=O)(=O)NCc2ccccc2N2CCCCC2)cc1NC(=O)CCC(=O)O,3000
14,COc1cc(OC)c(S(=O)(=O)N2c3ccccc3Oc3ccccc32)cc1NC(=O)Cc1ccnc(F)c1,90
15,COc1cc(O)c(S(=O)(=O)N2c3ccccc3CC[C@H]2C)cc1NC(=O)CCC(=O)O,50
16,COc1cc(OC)c(S(=O)(=O)N2c3ccccc3Sc3ccccc32)cc1NC(=O)CCC(=O)O,90
17,COc1cc(OC)c(S(=O)(=O)NCc2ccccc2N2CCCCC2)cc1NC(C)=O,200000
18,COc1cc(OC)c(S(=O)(=O)N2c3ccccc3CC[C@H]2C)cc1NC(=O)CSCC(=O)O,100
19,COc1cc(OC)c(S(=O)(=O)N2c3ccccc3CC[C@@H]2C)cc1NC(=O)COc1ccc(C(C)=O)cc1,200000
20,COc1cc(OC)c(S(=O)(=O)N2c3ccccc3CC[C@@H]2C)cc1NC(=O)Cc1ccnc(C#N)c1,680
21,COc1cc(OC)c(S(=O)(=O)N(c2ccccc2)c2ccccc2)cc1NC(=O)CCC(=O)O,40
